Structures can show the parent of a compound that is named as a salt.
Columns and labels:
Format in all cases: cell-based, mouse
TetR-HP1 = assay: Orthogonal TetR-HP1 recruitment assay (BFP reporter); details: 5 μM, 48 hrs, with TetR-HP1 recruitment
From the text: (§1) The CiA:Oct4 recruitment system in mouse embryonic stem cells contains Gal4 and Zinc finger DNA binding arrays and a downstream nuclear eGFP gene in place of a single Oct4 allele as previously described (Hathaway et al., 2012). The CiA:Oct4 N118/N163 cell line containing viral integrations of N118 and N163 plasmids (N118-nLV EF-1α-Gal-FKBPx1-HA-PGK-Blast, N163-nLV EF-1α-HP1α (CS)-Frbx2(Frb+FrbWobb)-V5-PGK-Puro) was used for all experiments unless otherwise stated. The CiA:Oct4 N205 line containing the lentiviral construct N205 (N205-nLV EF-1α-ZFHD1-link-FKBP-HA <T2A> HP1αCS-Frbx2-V5-PGK-Blast) was used for shRNA experiments. CiA:Oct4 N118 was infected with the lentiviral construct N192 (N192-nLV Dual Promoter EF-1α-MCS-PGK-Puro HP1γ-(CS)-Frbx2(wobbmo)-V5) to yield the csHP1γ recruitment system CiA:Oct4 N118/N192. […]
TetR-HP1 cell lines were continuously grown with 1 μg/ml doxycycline to maintain an open chromatin state. […] Median BFP intensity was determined by FlowJo software analysis. […]

[1] = test system: HP1 heterochromatin pathway; assay: Small molecule high-throughput flow cytometry screen, CiA:Oct4 N118/N163 cells with rapamycin (csHP1α recruitment); details: 10 μM compound, + 6 nM rapamycin, 48 hrs
From the text: as §1, with “N118/N192. For orthogonal recruitment system, stable mESC cell line with blue fluorescent protein (BFP) reporter gene with tetracycline response elements (TRE) was generated by recombinase-mediated cassette exchange, by introducing the reporter cassette DNA in plasmid YR06 into a genetrap located on chromosome 15 at genome coordinates chr15:99941948 (Lienert et al. (2011) Nature Genetics 43(11): 1091-1097; Elling et al. (2017) Nature 550(7674): 114-118).” for “N118/N192.”
Flow cytometry was performed using an Intellicyt iQue Screener and analyzed with FlowJo software. […]

csHP1γ = csHP1γ inhibition assay, CiA:Oct4 N118/N192 cells; details: 5 μM, 48 hrs, + 6 nM rapamycin
Experimental: Day 0, CiA:Oct4 N118/N192 cells were grown and cultured in 96 well plate format with 10,000 cells seeded per well. Day 1, media was aspirated and replaced with fresh ES media containing 5 μM of top screen compounds and +/−6 nM rapamycin. Day 2, media was aspirated and replaced with fresh ES media containing 5 μM of top screen compounds and +/−6 nM rapamycin. Day 3, wells were aspirated and washed with PBS prior to sample preparation and analysis by flow cytometry.
After 48-hrs of 5 μM compound treatment with and without rapamycin, the % GFP (+) populations were determined by flow cytometry analysis.
Flow cytometry analysis was used to determine the % GFP (+) population. Data was converted to % inhibition for the +rapamycin samples. Experiments were performed in biological triplicate. (n≥3) (p≤0.05*, 0.01**).

In the case of `COc1cc2nc(N3CCCC3)nc(N[C@H]3CCCNC3)c2cc1OC` [compound 1, (S)-6,7-Dimethoxy-N-(Piperidin-3-yl)-2-(Pyrrolidin-1-yl)Quinazolin-4-Amine Trifluoroacetic Acid Salt], the “Inhibition of HP1-mediated heterochromatin formation (median BFP expression)” value (TetR-HP1) is reported as “significantly inhibit”, the “GFP expression / % GFP (+) population despite csHP1α recruitment” value [1] is reported as “increased expression of GFP” and the “Inhibition of csHP1γ-mediated repression of CiA:Oct4 locus” value (csHP1γ) is reported as “most potent inhibitors of csHP1γ”.

— patent US11254654B2, “Heterochromatin gene repression inhibitors” (The University of North Carolina at Chapel Hill, priority 2017, dated 2022)
